We go through 1 compound from US8642622B2, “Piperidinyl compound as a modulator of chemokine receptor activity” (Bristol-Myers Squibb Company, priority 2010, dated 2014).

Data set [1] can be described thus: Single-dose pharmacokinetics in rats. The format is in vivo. To be noted: male, Sprague-Dawley, rat, plasma; for bioavailability: po. The procedure:
Serial blood samples were collected for all studies from the jugular vein at various time points post dose (0.17 (or 0.25 for oral), 0.5, 0.75, 1, 2, 4, 6, 8 and 24 h, for example). Plasma samples were analyzed by LC-MS/MS.
Additional studies evaluating suspensions of crystalline drug substance in aqueous medium were performed as described above.

For a further data set, the target named is T1, hERG potassium channel (Homo sapiens, UniProt Q12809).
T1 construct: expressed in transfected cells
Nature of the data set: hERG patch clamp assay. It is filed as cell-based. To be noted: HEK-293 cells stably expressing hERG, pH 7.4, HEK-293, protein-free buffer, read-out: hERG channel, % inh. The method, then:
Whole-cell patch-clamp was used to directly measure hERG tail currents in HEK-293 cells stably expressing the cloned hERG potassium channel α subunit. Effects of compounds were calculated by measuring inhibition of peak tail current. Experiments were carried out using an aqueous buffer with pH 7.4 at room temperature. There was no protein in the assay buffer. The test concentrations reported are nominal free drug levels. Data is reported as percent inhibition at a fixed concentration.
A general note: The hERG channel carries a current that helps repolarise heart muscle cells.

A further data set in a line: Protein binding, rabbit. It is filed as in vitro ADME.
Data set [2] can be described thus: Electrocardiography in anesthetized rabbits (rabbit in vivo EP effect). The procedure: A dose-response study of test compound was conducted in anesthetized rabbits to assess the cardiac electrophysiologic profile established in the cellular ion channel assays.
Experiments were performed in propofol-fentanyl anesthetized closed-chest male rabbits. A body surface electrocardiogram (ECG) and an intra-cardiac His-bundle electrogram were continuously monitored and recorded during the studies, using a PoNeMah system and a Prucka electrophysiological recording system, respectively. Test compound was prepared on the day of study in a vehicle of PEG400:ethanol:water (1:1:1) at a dosing concentration of 30 mg/mL. Test compound (n=3) or vehicle (n=3) was given intravenously over 5 minutes via an infusion pump at incremental doses of 3, 10 and 30 mg/kg. The interval between doses was 10 minutes, allowing for a 5-minute test agent infusion and a 5-minute rest period. Blood was sampled at baseline (pre-drug infusion) and immediately at the end of each infusion. For the 30 mg/kg dose, additional blood samples were taken at 10, 20 and 30 minutes after the end of infusion.
PR interval, QRS duration and QT interval were averaged from a 1 minute ECG recording period at time of blood sampling. QT interval was corrected for heart rate effects using both Fridericia (QTcf) and Van der Water (QTcv) formulae. AH and HV intervals, representing A-V node conduction and His-Purkinje conduction, respectively, were assessed by manual measurements from the His-bundle electrogram. Data were expressed as percent change from pre-drug baseline (mean±SEM) for PR, QRS, AH and HV intervals as well as delta change from the pre-drug infusion baseline (mean±SEM) for QTc intervals. Changes of 10% in PR, QRS, and AH intervals, and 20% in HV interval, as well as >10 ms in QTc interval are considered significant based on experience with the model.

Data set [3] addresses T2, human cardiac sodium channel, SCNSA (Homo sapiens, UniProt Q14524).
T2 construct: expressed in transfected cells; host or cells: HEK-293
Kind of data set: Sodium channel whole-cell patch-clamp assay. It is filed as cell-based. To be noted: HEK293, HEK-293, protein-free buffer, read-out: Na channel, % inh. The procedure: Whole-cell patch-clamp was used to directly measure inward sodium currents in HEK-293 cells expressing the human cardiac sodium channel, SCNSA. After reach steady-state effect in the presence of drug, rate-dependence was assessed by stimulation at frequencies of 1 Hz and 4 Hz. Experiments were carried out using an aqueous buffer at pH 7.4 and at room temperature. There is no protein in the buffer and drug concentrations reported are nominal free drug levels. Test article was evaluated up to 10 μM (protein-free buffer). […] Data is reported as percent inhibition at a fixed concentration.
(Patch clamp records ionic current or voltage across a cell membrane.)

In data set [4] the target is T3, human cardiac L-type Ca channel (α1C) and its β subunit (Homo sapiens, UniProt Q13936).
T3 construct: expressed in transfected cells
Nature of the data set: L-type calcium channel whole-cell patch-clamp assay. The format is cell-based. To be noted: @ 30 μM, HEK-293, protein-free buffer. The method, then: In addition to the potential for interaction with the L-type calcium channel, whole-cell patch-clamp was used to directly measure inward calcium currents in HEK-293 cells stably expressing the cloned human cardiac L-type Ca channel (α1C) and its β subunit. Effects of compounds were calculated by measuring inhibition of peak current. Experiments were carried out using an aqueous buffer at pH 7.4 and at room temperature. There is no protein in the buffer and drug concentrations reported are nominal free drug levels. Data is reported as percent inhibition at a fixed concentration.

The structures appear in SMILES notation. Where two headings read alike, the source gives them in different places.

T3 sequence (Q13936 whole entry): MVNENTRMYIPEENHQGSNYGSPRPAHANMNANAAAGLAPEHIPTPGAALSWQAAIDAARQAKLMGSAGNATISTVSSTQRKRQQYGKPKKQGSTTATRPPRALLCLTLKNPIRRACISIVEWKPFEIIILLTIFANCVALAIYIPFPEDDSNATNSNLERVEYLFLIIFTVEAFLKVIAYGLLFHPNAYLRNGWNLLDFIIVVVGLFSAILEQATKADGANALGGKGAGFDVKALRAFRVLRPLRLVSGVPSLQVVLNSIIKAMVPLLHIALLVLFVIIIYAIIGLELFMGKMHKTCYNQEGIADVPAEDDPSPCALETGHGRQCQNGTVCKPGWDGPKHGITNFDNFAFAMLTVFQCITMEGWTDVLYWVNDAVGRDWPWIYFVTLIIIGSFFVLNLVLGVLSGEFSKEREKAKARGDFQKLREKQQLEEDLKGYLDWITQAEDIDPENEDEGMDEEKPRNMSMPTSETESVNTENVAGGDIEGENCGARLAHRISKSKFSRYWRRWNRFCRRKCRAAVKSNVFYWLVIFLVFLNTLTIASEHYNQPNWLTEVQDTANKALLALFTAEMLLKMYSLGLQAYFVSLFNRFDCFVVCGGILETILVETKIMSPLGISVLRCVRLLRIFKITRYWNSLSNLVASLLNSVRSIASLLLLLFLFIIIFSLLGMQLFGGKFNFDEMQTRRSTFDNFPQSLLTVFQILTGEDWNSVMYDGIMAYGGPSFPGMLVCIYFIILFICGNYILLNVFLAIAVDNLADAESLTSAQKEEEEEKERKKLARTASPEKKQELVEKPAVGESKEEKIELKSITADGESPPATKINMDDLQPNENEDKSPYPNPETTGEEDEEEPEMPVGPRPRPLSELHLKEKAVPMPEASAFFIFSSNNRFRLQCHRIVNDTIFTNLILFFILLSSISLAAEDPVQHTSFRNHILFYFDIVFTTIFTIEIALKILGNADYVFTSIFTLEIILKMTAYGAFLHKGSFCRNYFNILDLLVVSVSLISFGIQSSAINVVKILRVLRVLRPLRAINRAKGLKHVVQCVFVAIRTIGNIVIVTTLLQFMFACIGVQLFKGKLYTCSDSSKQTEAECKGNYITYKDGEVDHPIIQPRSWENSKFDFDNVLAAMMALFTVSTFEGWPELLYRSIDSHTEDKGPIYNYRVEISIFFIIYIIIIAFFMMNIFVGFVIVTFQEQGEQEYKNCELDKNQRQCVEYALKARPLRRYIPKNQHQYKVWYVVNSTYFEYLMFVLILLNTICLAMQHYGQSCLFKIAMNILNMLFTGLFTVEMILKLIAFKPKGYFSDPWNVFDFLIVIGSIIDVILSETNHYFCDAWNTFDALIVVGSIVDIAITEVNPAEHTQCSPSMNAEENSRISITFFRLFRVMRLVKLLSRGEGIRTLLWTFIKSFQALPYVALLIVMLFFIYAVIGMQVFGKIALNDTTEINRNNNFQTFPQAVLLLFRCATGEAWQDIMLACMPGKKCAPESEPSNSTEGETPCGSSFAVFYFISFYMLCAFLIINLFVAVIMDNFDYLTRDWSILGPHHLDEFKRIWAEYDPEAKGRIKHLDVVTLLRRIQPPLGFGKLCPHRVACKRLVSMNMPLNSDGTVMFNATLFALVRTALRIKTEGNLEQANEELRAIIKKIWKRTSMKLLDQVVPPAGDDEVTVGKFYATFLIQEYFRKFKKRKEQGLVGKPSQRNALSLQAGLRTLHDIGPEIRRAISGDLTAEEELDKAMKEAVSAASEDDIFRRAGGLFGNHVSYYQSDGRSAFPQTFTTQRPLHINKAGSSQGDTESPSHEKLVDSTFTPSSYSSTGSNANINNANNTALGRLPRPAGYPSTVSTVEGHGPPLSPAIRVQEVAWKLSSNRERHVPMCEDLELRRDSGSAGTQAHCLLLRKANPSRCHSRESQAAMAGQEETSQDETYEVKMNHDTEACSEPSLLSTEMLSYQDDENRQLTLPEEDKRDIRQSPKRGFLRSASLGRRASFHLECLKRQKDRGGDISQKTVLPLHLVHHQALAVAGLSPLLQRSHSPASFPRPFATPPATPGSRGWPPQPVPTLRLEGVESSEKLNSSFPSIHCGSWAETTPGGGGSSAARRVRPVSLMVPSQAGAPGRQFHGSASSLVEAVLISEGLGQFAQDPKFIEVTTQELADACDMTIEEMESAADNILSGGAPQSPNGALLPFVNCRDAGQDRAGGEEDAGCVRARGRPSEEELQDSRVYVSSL
T3 sequence (Q08289 whole entry partner): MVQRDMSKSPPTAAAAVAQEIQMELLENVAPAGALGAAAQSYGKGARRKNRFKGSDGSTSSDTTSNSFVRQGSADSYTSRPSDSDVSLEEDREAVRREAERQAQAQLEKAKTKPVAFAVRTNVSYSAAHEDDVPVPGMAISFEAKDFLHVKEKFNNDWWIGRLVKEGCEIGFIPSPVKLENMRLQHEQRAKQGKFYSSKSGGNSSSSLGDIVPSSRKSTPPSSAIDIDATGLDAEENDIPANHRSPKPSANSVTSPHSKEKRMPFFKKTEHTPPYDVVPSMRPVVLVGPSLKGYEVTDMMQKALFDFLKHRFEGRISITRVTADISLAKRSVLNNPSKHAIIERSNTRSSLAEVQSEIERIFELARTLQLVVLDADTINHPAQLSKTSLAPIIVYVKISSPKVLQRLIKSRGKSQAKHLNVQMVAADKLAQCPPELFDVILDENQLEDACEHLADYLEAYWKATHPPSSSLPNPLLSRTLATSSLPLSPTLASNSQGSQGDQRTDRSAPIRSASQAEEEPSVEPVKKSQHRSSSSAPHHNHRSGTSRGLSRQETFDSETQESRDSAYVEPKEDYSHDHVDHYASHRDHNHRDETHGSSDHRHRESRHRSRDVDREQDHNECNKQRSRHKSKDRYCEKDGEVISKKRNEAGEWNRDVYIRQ
T1 sequence (Q12809 whole entry): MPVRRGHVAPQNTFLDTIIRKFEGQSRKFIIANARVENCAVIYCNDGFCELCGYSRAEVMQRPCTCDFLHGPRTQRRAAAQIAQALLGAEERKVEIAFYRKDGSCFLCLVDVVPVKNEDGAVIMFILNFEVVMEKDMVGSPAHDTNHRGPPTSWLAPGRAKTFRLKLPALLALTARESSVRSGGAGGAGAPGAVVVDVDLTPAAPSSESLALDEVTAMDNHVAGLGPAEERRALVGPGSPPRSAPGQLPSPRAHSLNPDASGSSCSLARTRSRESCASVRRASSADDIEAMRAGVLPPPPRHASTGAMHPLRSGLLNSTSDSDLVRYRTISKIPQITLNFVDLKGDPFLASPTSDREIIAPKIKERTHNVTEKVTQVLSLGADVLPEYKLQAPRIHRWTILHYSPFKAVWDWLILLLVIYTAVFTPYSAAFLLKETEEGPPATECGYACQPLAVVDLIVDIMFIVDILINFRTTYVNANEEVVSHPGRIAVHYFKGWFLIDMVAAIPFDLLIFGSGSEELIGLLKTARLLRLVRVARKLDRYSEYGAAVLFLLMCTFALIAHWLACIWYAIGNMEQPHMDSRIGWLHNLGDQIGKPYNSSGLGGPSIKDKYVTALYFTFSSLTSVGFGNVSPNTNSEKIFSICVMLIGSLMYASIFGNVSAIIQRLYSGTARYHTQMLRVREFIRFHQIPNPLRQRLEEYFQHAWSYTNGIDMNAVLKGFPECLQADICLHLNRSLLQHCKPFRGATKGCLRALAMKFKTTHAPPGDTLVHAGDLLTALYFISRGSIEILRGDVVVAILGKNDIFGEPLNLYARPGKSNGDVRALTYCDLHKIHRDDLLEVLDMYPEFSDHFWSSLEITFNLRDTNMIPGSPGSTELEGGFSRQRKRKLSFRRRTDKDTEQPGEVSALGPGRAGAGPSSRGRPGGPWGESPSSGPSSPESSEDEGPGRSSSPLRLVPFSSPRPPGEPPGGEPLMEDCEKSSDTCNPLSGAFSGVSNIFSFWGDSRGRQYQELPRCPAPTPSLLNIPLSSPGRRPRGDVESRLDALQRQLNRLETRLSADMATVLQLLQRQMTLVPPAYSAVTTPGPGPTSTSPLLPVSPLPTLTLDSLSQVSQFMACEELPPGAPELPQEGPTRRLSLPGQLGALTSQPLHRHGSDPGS

With `CC(C)[C@@H](NC(=O)[C@@H]1CCC(F)(F)C1)C(=O)N1CC[C@](O)(c2ccc(Cl)cc2)[C@@](C)(O)C1` [Compound I, (R)—N—((R)-1-((3S,4S)-4-(4-chlorophenyl)-3,4-dihydroxy-3-methylpiperidin-1-yl)-3-methyl-1-oxobutan-2-yl)-3,3-difluorocyclopentanecarboxamide], in data set [1] (intravenous), the clearance – broadly, a measure of how efficiently the substance is removed, as volume per time – is 1.56 L/h/kg. In addition, the bioavailability (usually the share of a dose that reaches the circulation, judged against a reference dose that is usually intravenous) in data set [1] (crystalline suspension in aqueous medium, read-out: Relative bioavailability when dosed as a crystalline suspension) is 84%; in data set [1] (oral solution, read-out: Rat oral bioavailability when dosed as solution), 43%. Also, the inhibition at 30 µM at hERG potassium channel came out at 22%. Also, the fraction unbound (in general, free concentration divided by total concentration) in “Protein binding, rabbit” is 0.46. Besides, the “Cmax: Free drug (at NOEL dose)” value in data set [2] (at NOEL dose, free drug) came to 52 µM. The “Cmax: Free drug (at QT effect dose)” value in data set [2] (at QT effect dose, free drug) amounted to 52 µM. Besides, in data set [2] (i.v. infusion), the NOEL dose is reported as 30 mg/kg. Moreover, the “QT effect Dose” value in data set [2] (i.v. infusion 3, 10, 30 mg/kg) is greater than 30 mg/kg. The “QTcf, delta” value in data set [2] (i.v. infusion, change from pre-drug baseline) is listed as “No effect”. Further, in data set [2] (male, blood, iv, at QT effect dose, total drug), the Cmax worked out at 96 µM. Moreover, the inhibition at 10 µM in data set [3] amounted to 21%. For the same compound, the “Ca channel, % inh” value in data set [4] was 29% @ 30 μM.
